# Reference: US12304912B2, “Fused bicyclic RAF inhibitors and methods for use thereof” (Jazz Pharmaceuticals Ireland Limited, priority 2020, dated 2025)
# Like-named read-outs stand apart in the source and are kept apart here.
# Tests used:
# [1] = Microsomal stability assay, human liver microsomes (HLM); format: in vitro ADME; conditions: 0.5 mg/mL protein, 1 μM substrate, 37° C.
# Outline: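 Half-life and CLint come from the ln(% remaining)–time slope, with remaining compound quantified by LC-MS/MS after ice-cold solvent quench of timed samples. Incubations used 1 μM test compound and 0.5 mg·mL^−1 human or mouse liver microsomal protein at 37° C.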
# [2] = test system: BRAF monomers in A375 cells; test: A375 AlphaLISA SureFire pERK1/2 cellular assay (monomer); format: cell-based; conditions: Homo sapiens, read-out: pERK A375 (1 hr) pIC50 (converted)
# Outline: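 BRAF^V600E A375 melanoma cells seeded at 30,000/well in DMEM with 10% FBS, dosed without medium exchange in a 10-point series from 10 μM at 1/2-log steps, 1 h at 37 °C. Phospho-ERK1/2 (Thr202/Tyr204) measured in lysates by AlphaLISA SureFire; absolute IC50 relative to DMSO control.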
# [3] = test system: constitutive ERK phosphorylation in WiDr cells; test: WiDr AlphaLISA SureFire pERK1/2 cellular assay; format: cell-based, human; conditions: Homo sapiens, read-out: pERK WiDr (2 hr) Abs pIC50 (converted)
# Experimental: The human HCT-116 colorectal carcinoma cell line (ATCC CCL-247) endogenously expresses the KRAS^G13D mutation, which leads to constitutive activation of the MAP kinase pathway and phosphorylation of ERK. […] Assay read outs took place 2 or 24 hours after dosing with compounds. On the first day, HCT-116 cells were harvested, resuspended in growth medium (McCoys5A with Glutamax (Life Technologies 36600021) and 10% heat-inactivated fetal bovine serum (Sigma F9665)), and counted. Cells were plated in 100 μl per well in each well of a 96-well culture dish (Sigma CLS3598) to a final density of 30,000 (2 hr read) or 15,000 (24 hr read) cells per well and incubated over night at 37° C. and 5% CO2. On day 2, the growth medium was exchanged for dosing medium (McCoys5A with Glutamax (Life Technologies 36600021) and 1% heat-inactivated fetal bovine serum (Sigma F9665)) and the cells were dosed with compounds to produce a 10-point dose response, where the top concentration was 1 μM and subsequent concentrations were at 1/3 log dilution intervals. A matched DMSO control was included. The cells were subsequently incubated for either 2 or 24 hours at 37° C. and 5% CO2. After incubation, media was removed and the cells were incubated with lysis buffer containing phosphatase inhibitors for 15 minutes at room temperature. Cell lysates were transferred to a 12 area 96 well white Optiplate™ (Perkin Elmer 6005569) and incubated with anti-mouse IgG acceptor beads, a biotinylated anti-ERK1/2 rabbit antibody recognizing both phosphorylated and non-phosphorylated ERK1/2, a mouse antibody targeted to the Thr202/Tyr204 epitope and recognizing phosphorylated ERK proteins only, and streptavidin-coated donor beads. The biotinylated antibody binds to the streptavidin-coated donor beads and the phopsho-ERK1/2 antibody binds to the acceptor beads. Plates were read on an EnVision reader (Perkin Elmer) and excitation of the beads at 680 nm with a laser induced the release of singlet oxygen molecules from the donor beads that trigger energy transfer to the acceptor beads in close proximity, producing a signal that can be measured at […]. Both antibodies bound to phosphorylated ERK proteins, bringing the donor and acceptor beads into close proximity. All data were analyzed using the Dotmatics or GraphPad Prism software packages. Inhibition of ERK phosphorylation was assessed by determination of the absolute IC50 value, which is defined as the concentration of compound required to decrease the level of phosphorylated ERK proteins by 50% when compared to DMSO control.
# WiDr AlphaLISA SureFire pERK1/2 Cellular Assay
# The human WiDr colorectal adenocarcinoma cell line (ATCC CCL-218) endogenously expresses the BRAF^V600E mutation, which leads to constitutive activation of the MAP kinase pathway and phosphorylation of ERK. […] The main procedure is essentially the same as for HCT-116 cells (above), with the following adjustments to the growth medium (Eagle's Minimum Essential Medium (Sigma M2279) with 1× Glutamax (Life Technologies 35050038), 1× Sodium-Pyruvate (Sigma S8636), and 10% heat-inactivated fetal bovine serum (Sigma F9665)), the dosing medium (Eagle's Minimum Essential Medium (Sigma M2279) with 1× Glutamax (Life Technologies 35050038), 1× Sodium-Pyruvate (Sigma S8636), and 1% heat-inactivated fetal bovine serum (Sigma F9665)), and the seeding densities (2 hr: 50,000 cells per well; 24 hr: 35,000 cells per well). Moreover, the compounds were dosed in 1/2 log dilution intervals with the top concentration of 10 μM.
Structure (SMILES),microsomal CLint at 1 μM [1] [µL/min/mg],"IC50 ([2]; A-375, A375 cells, 1 hr) [nM]","IC50 ([3]; WiDr cells, 2 hr, Abs) [nM]","IC50 ([2]; A-375, 1 h) [nM]","IC50 ([3]; WiDr, 2 h) [nM]"
"CN1CCC(C(=O)Nc2cc(Oc3ccc4c(c3)CC(c3nc(-c5ccccc5)c[nH]3)CO4)ccn2)CC1 (stereo not drawn) [Compound 147, 1-methyl-N-[4-[3-(4-phenyl-1H-imidazol-2-yl)chroman-6-yl]oxy-2-pyridyl]piperidine-4-carboxamide]",10.4,631,871,–,–
"O=C(Nc1nccc(Oc2ccc3c(c2)CC(c2nc(-c4ccccc4)c[nH]2)CO3)n1)C1CC1 (stereo not drawn) [Compound 148, N-[4-[3-(4-phenyl-1H-imidazol-2-yl)chroman-6-yl]oxypyrimidin-2-yl]cyclopropanecarboxamide]",132,1230,871,–,–
O=C(CN1CCOCC1)Nc1cc(Oc2ccc3c(c2)CC(c2nc(-c4ccccc4)c[nH]2)CO3)ccn1 (stereo not drawn) [Compound 149],63.7,1320,933,–,–
"O=C(Nc1cc(Oc2ccc3c(c2)CC(c2nc(-c4ccccc4)c[nH]2)CO3)ncn1)C1CC1 (stereo not drawn) [Compound 151, N-[6-[3-(4-phenyl-1H-imidazol-2-yl)chroman-6-yl]oxypyrimidin-4-yl]cyclopropanecarboxamide]",18.3,–,–,347,224
O=C(CN1CCCC1)Nc1cc(Oc2ccc3c(c2)CC(c2nc(-c4ccccc4)c[nH]2)CO3)ccn1 (stereo not drawn) [Compound 152],29,603,219,–,–
O=C(CN1CC(O)C1)Nc1cc(Oc2ccc3c(c2)CC(c2nc(-c4ccccc4)c[nH]2)CO3)ccn1 (stereo not drawn) [Compound 153],19.2,501,288,–,–
O=C(Cn1cncn1)Nc1cc(Oc2ccc3c(c2)CC(c2nc(-c4ccccc4)c[nH]2)CO3)ccn1 (stereo not drawn) [Compound 154],22.8,97.7,33.1,–,–
"O=C(Nc1cc(Oc2ccc3c(c2)CC(c2nc(-c4ccc(F)cc4)c[nH]2)CO3)ccn1)C1CC1 (stereo not drawn) [Compound 155, N-[4-[3-[4-(4-fluorophenyl)-1H-imidazol-2-yl]chroman-6-yl]oxy-2-pyridyl]cyclopropanecarboxamide]",28.9,117,102,–,–
"CC(=O)Nc1cc(Oc2ccc3c(c2)CC(c2nc(-c4ccccc4)c[nH]2)CO3)ccn1 (stereo not drawn) [Compound 156, N-[4-[3-(4-phenyl-1H-imidazol-2-yl)chroman-6-yl]oxy-2-pyridyl]acetamide]",30.3,178,132,–,–
CC1CC1C(=O)Nc1cc(Oc2ccc3c(c2)CC(c2nc(-c4ccccc4)c[nH]2)CO3)ccn1 (stereo not drawn) [Compound 157],35.7,525,275,–,–
O=C1CCc2c(Oc3ccc4c(c3)CN(c3nc5cc(C(F)(F)F)ccc5[nH]3)CC4)ccnc2N1 [Compound 160],2.7,871,219,–,–
